Paper PMC6961116, “Scaffold-hopping identifies furano[2,3-d]pyrimidine amides as potent Notum inhibitors” (Bioorganic & Medicinal Chemistry Letters, 2020)
Read-outs that look alike come from different tables or passages of the source.

Assays:
[1] = molecular target: T1, Notum(81–451 Cys330Ser) (Homo sapiens, UniProt Q6P988, C330S); assay: Notum biochemical OPTS assay (carboxylesterase activity); details: for IC50: OPTS substrate, 1 h incubation, geometric mean ± s.d.
T1 sequence (Q6P988 81-451 C330S): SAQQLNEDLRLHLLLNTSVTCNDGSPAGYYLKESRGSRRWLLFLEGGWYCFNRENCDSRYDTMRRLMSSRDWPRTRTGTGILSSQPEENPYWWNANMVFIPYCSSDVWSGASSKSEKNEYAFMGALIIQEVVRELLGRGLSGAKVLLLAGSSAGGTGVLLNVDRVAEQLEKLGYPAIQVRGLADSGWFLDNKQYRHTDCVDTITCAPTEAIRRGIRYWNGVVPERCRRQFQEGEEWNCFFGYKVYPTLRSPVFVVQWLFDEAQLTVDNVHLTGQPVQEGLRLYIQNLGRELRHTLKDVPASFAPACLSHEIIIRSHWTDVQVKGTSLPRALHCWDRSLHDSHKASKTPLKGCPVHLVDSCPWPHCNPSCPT

[2] = Metabolic stability in mouse liver microsomes (MLM); assay type: in vitro ADME; details: mouse liver microsomes
[3] = test system: P-gp (MDR1); assay: MDCK-MDR1 cell permeability and efflux; assay type: in vitro ADME; details: dog; for efflux ratio: MDCK-MDR1, read-out: MDCK-MDR1 efflux ratio (ER)
[4] = test system: MDCK-MDR1 monolayer; details: amides 4, cited from earlier work; for MDCK-MDR1 AB Papp: A to B direction; for MDCK-MDR1 BA Papp: B to A direction
[5] = MDCK-MDR1, A to B direction, read-out: MDCK-MDR1 AB Papp
[6] = MDCK-MDR1, B to A direction, read-out: MDCK-MDR1 BA Papp

SMILES | IC50 [1] | MLM Cli [2] | Papp [3, 5] | Papp [3, 6] | efflux ratio [3] | further results
Cc1sc2ncnc(SCC(=O)N3CCOCC3)c2c1Cl [Compound 5c] | 69 ± 10 nM | – | – | – | – | –
Cc1sc2ncnc(SCC(=O)N3CCNC(=O)C3)c2c1Cl [Compound 5d] | 5.8 ± 4 nM | 19 µL/min/mg | 12 ×10⁻⁶ cm/s | 66 ×10⁻⁶ cm/s | 5.5 | –
Cc1c(C(F)(F)F)sc2ncnc(SCC(=O)O)c12 [Compound 9] | 1 ± 0.4 nM | – | – | – | – | –
Cc1sc2ncnc(SCC(=O)N3CC(=O)N(CC(F)(F)F)C3)c2c1Cl [Compound 5o] | 3.9 ± 0.4 nM | 140 µL/min/mg | – | – | – | –
Cn1ccc2c(SCC(=O)O)ncnc21 [Compound 15, 2-((7-methyl-7H-pyrrolo[2,3-d]pyrimidin-4-yl)thio)acetic acid] | 15000 nM | – | – | – | – | –
Cc1sc2ncnc(SCC(=O)N3CCn4c(nnc4C4CC4)C3)c2c1Cl [Compound 5r] | 27 ± 3 nM | 53 µL/min/mg | 0.8 ×10⁻⁶ cm/s | 78 ×10⁻⁶ cm/s | 97 | –
Cc1sc2ncnc(SCC(=O)N3CC(=O)N(C4CC4)C3)c2c1Cl [Compound 5n] | 3.8 ± 1.3 nM | 49 µL/min/mg | – | – | – | –
Cc1cc2c(SCC(=O)O)ncnc2s1 [Compound 6] | 790 ± 70 nM | – | – | – | – | –
Cc1sc2ncnc(SCC(=O)N3CCN(C)C(=O)C3)c2c1Cl [Compound 5g] | 6.2 ± 0.5 nM | 33 µL/min/mg | 23 ×10⁻⁶ cm/s | 62 ×10⁻⁶ cm/s | 2.7 | –
Cc1nn(C)c2ncnc(SCC(=O)O)c12 [Compound 17] | 1100 nM | – | – | – | – | fold weaker Notum inhibition than 1 ([1]; relative to 1): 1000 fold
Cc1sc2ncnc(SCC(=O)N3CC(=O)NC(C)(C)C3)c2c1Cl [Compound 5j] | 450 ± 200 nM | – | – | – | – | –
N#Cc1sc2c(SCC(=O)O)ncnc2c1C1CC1 [Compound 12] | 8.1 nM | – | – | – | – | –
Cc1sc2ncnc(SCC(=O)N3CCn4c(C)nnc4C3)c2c1Cl [Compound 5p] | 16 ± 2 nM | 15 µL/min/mg | 0.5 ×10⁻⁶ cm/s | 51 ×10⁻⁶ cm/s | > 100 | –
Cc1c(C#N)sc2ncnc(SCC(=O)O)c12 [Compound 11, 2-((6-cyano-5-methylthieno[2,3-d]pyrimidin-4-yl)thio)acetic acid] | 25 ± 4 nM | – | – | – | – | –
Cc1sc2ncnc(SCC(=O)N3CNC(=O)C3)c2c1Cl [Compound 5e] | 2.7 ± 0.5 nM | 65 µL/min/mg | 14 ×10⁻⁶ cm/s | 82 ×10⁻⁶ cm/s | 5.9 | –
O=C(CSc1ncnc2c(C3CC3)c(Cl)sc12)N1CCn2cnnc2C1 [Compound 4f] | – | – | – | – | – | MDCK-MDR1 AB Papp [4]: 0.95 ×10⁻⁶ cm/s; MDCK-MDR1 BA Papp [4]: 93 ×10⁻⁶ cm/s
Cc1nc(SCC(=O)O)c2c(C)c(C)sc2n1 [Compound 8] | 2100 nM | – | – | – | – | –
Cc1sc2ncnc(SCC(=O)N3CCn4nc(C(F)(F)F)nc4C3)c2c1Cl [Compound 5v] | 18 ± 5 nM | 140 µL/min/mg | 15 ×10⁻⁶ cm/s | 27 ×10⁻⁶ cm/s | 1.8 | –

SMILES | IC50 [1] | MLM Cli [2] | Papp [3, 5] | Papp [3, 6] | efflux ratio [3] | further results
Cc1c(C(F)(F)F)oc2ncnc(SCC(=O)O)c12 [Compound 19] | 3.2 ± 0.5 nM | – | – | – | – | –
Cc1sc2ncnc(SCC(=O)N3CC(=O)N4CCCC4C3)c2c1Cl (stereo not shown) [Compound 5k] | 20 ± 4 nM | 63 µL/min/mg | 7 ×10⁻⁶ cm/s | 51 ×10⁻⁶ cm/s | 7.3 | –
Cc1sc2ncnc(SCC(=O)N3CC(=O)NC(C)C3)c2c1Cl (stereo not shown) [Compound 5i] | 33 ± 5 nM | – | – | – | – | –
CCN1CN(C(=O)CSc2ncnc3sc(C)c(Cl)c23)CC1=O [Compound 5m] | 2.6 ± 0.1 nM | 43 µL/min/mg | 35 ×10⁻⁶ cm/s | 51 ×10⁻⁶ cm/s | 1.5 | –
O=C(O)CSc1ncnc2c1ccn2Cc1ccccc1 [Compound 16, 2-((7-benzyl-7H-pyrrolo[2,3-d]pyrimidin-4-yl)thio)acetic acid] | 50000 nM | – | – | – | – | –
Cc1sc2ncnc(SCC(=O)N3CCn4c(nnc4C(F)(F)F)C3)c2c1Cl [Compound 5s] | 38 ± 3 nM | 93 µL/min/mg | 15 ×10⁻⁶ cm/s | 85 ×10⁻⁶ cm/s | 5.7 | –
O=C(O)CSc1ncnc2[nH]cc(Cl)c12 [Compound 14] | 20000 nM | – | – | – | – | –
CCc1nnc2n1CCN(C(=O)CSc1ncnc3sc(C)c(Cl)c13)C2 [Compound 5q] | 23 ± 5 nM | 38 µL/min/mg | 0.8 ×10⁻⁶ cm/s | 65 ×10⁻⁶ cm/s | 81 | –
Cc1sc2ncnc(SCC(=O)N(C)C)c2c1Cl [Compound 5a] | 15 ± 6 nM | 360 µL/min/mg | – | – | – | –
O=C1CN(C(=O)CSc2ncnc3c(C4CC4)c(Cl)sc23)CN1 [Compound 4e] | – | – | – | – | – | MDCK-MDR1 AB Papp [4]: 3.8 ×10⁻⁶ cm/s; MDCK-MDR1 BA Papp [4]: 14 ×10⁻⁶ cm/s
Cc1sc2ncnc(SCC(=O)N3CCCCC3)c2c1Cl [Compound 5b] | 220 ± 12 nM | – | – | – | – | –
Cc1sc2ncnc(SCC(=O)O)c2c1C(F)(F)F [Compound 10] | 3.9 ± 0.7 nM | – | – | – | – | –
CCN1CCN(C(=O)CSc2ncnc3sc(C)c(Cl)c23)CC1=O [Compound 5h] | 4.2 ± 0.4 nM | 100 µL/min/mg | 1.1 ×10⁻⁶ cm/s | 37 ×10⁻⁶ cm/s | 34 | –
O=C(O)CSc1ncnc2[nH]ccc12 [Compound 13] | 77000 nM | – | – | – | – | –
Cc1oc2ncnc(SCC(=O)O)c2c1C [Compound 18] | 50 ± 14 nM | – | – | – | – | fold weaker Notum inhibition than 7 ([1]; relative to thiophene analogue 7): 10 fold
Cc1sc2ncnc(SCC(=O)N3CCn4ncnc4C3)c2c1Cl [Compound 5t] | 15 ± 3 nM | 53 µL/min/mg | 19 ×10⁻⁶ cm/s | 49 ×10⁻⁶ cm/s | 2.6 | –
Cc1nc2n(n1)CCN(C(=O)CSc1ncnc3sc(C)c(Cl)c13)C2 [Compound 5u] | 11 ± 6 nM | 37 µL/min/mg | 17 ×10⁻⁶ cm/s | 44 ×10⁻⁶ cm/s | 2.6 | –
